The test system of the experiment is a variety of test species. The experiment can be described thus: Post-emergence herbicidal activity (glasshouse, sprayed 8 days after sowing, evaluated after 13 days). The class given is in vivo. Particulars: 1000 g/ha, scale 0-5. The method, then:
Seeds of a variety of test species were sown in standard soil in pots. After 8 days cultivation (post-emergence) under controlled conditions in a glasshouse (at 24/16° C., day/night; 14 hours light; 65% humidity), the plants were sprayed with an aqueous spray solution derived from the formulation of the technical active ingredient in acetone/water (50:50) solution containing 0.5% Tween 20 (polyoxyethelyene sorbitan monolaurate, CAS RN 9005-64-5). The test plants were then grown in a glasshouse under controlled conditions (at 24/16° C., day/night; 14 hours light; 65% humidity) and watered twice daily. After 13 days, the test was evaluated (5=total damage to plant; 0=no damage to plant).

`CC1=C(Cl)C(O)N(c2nn(C)c3c2C2CCC3C2)C1=O` (stereo not drawn) [Compound B29]: the “Post-emergence herbicidal damage score, ABUTH (Abutilon theophrasti)” value is listed as 5; the “Post-emergence herbicidal damage score, ALOMY (Alopecurus myosuroides)” value amounted to 4; the “Post-emergence herbicidal damage score, AMARE (Amaranthus retroflexus)” value was 5; the “Post-emergence herbicidal damage score, ECHCG (Echinochloa crus-galli)” value worked out at 5. Also, the “Post-emergence herbicidal damage score, SETFA (Setaria faberi)” value is on record as 5 and the “Post-emergence herbicidal damage score, ZEAMX (Zea mays)” value amounted to 3.

`CC1=C(Cl)C(O)N(c2ccn(C)n2)C1=O` (stereo not drawn) [Compound B31]: the “Post-emergence herbicidal damage score, ABUTH (Abutilon theophrasti)” value is given as 0; the “Post-emergence herbicidal damage score, ALOMY (Alopecurus myosuroides)” value worked out at 1; the “Post-emergence herbicidal damage score, AMARE (Amaranthus retroflexus)” value stood at 3; the “Post-emergence herbicidal damage score, ECHCG (Echinochloa crus-galli)” value was determined as 1. Moreover, the “Post-emergence herbicidal damage score, SETFA (Setaria faberi)” value worked out at 1 and the “Post-emergence herbicidal damage score, ZEAMX (Zea mays)” value came to 1.

Turning to `CC1=C(Cl)C(O)N(c2cc(Cc3ccccc3)n(C)n2)C1=O` (stereo not drawn) [Compound B32], the “Post-emergence herbicidal damage score, ABUTH (Abutilon theophrasti)” value is 5; the “Post-emergence herbicidal damage score, ALOMY (Alopecurus myosuroides)” value turned out to be 2; the “Post-emergence herbicidal damage score, AMARE (Amaranthus retroflexus)” value came out at 3; the “Post-emergence herbicidal damage score, ECHCG (Echinochloa crus-galli)” value is reported as 3. The “Post-emergence herbicidal damage score, SETFA (Setaria faberi)” value stood at 4 and the “Post-emergence herbicidal damage score, ZEAMX (Zea mays)” value amounted to 0.

For the compound `CCn1nc(N2C(=O)C(C)=C(Cl)C2O)cc1C(F)(F)F` (stereo not drawn) [Compound C1], the “Post-emergence herbicidal damage score, ABUTH (Abutilon theophrasti)” value came out at 3; the “Post-emergence herbicidal damage score, ALOMY (Alopecurus myosuroides)” value worked out at 3; the “Post-emergence herbicidal damage score, AMARE (Amaranthus retroflexus)” value came to 5; the “Post-emergence herbicidal damage score, ECHCG (Echinochloa crus-galli)” value came to 4. The “Post-emergence herbicidal damage score, SETFA (Setaria faberi)” value was found to be 0 and the “Post-emergence herbicidal damage score, ZEAMX (Zea mays)” value is 1.

With `CCn1nc(N2C(=O)C(C)=C(Cl)C2O)cc1C(C)(C)C` (stereo not drawn) [Compound C2], the “Post-emergence herbicidal damage score, ABUTH (Abutilon theophrasti)” value turned out to be 5; the “Post-emergence herbicidal damage score, ALOMY (Alopecurus myosuroides)” value is recorded as 3; the “Post-emergence herbicidal damage score, AMARE (Amaranthus retroflexus)” value is reported as 4; the “Post-emergence herbicidal damage score, ECHCG (Echinochloa crus-galli)” value is 4. Besides, the “Post-emergence herbicidal damage score, SETFA (Setaria faberi)” value is 4 and the “Post-emergence herbicidal damage score, ZEAMX (Zea mays)” value is given as 0.

For the compound `CCn1nc(N2C(=O)C(C)=C(Cl)C2O)c2c1C(C)(C)CC2` (stereo not drawn) [Compound C3], the “Post-emergence herbicidal damage score, ABUTH (Abutilon theophrasti)” value is reported as 5; the “Post-emergence herbicidal damage score, ALOMY (Alopecurus myosuroides)” value turned out to be 4; the “Post-emergence herbicidal damage score, AMARE (Amaranthus retroflexus)” value amounted to 5; the “Post-emergence herbicidal damage score, ECHCG (Echinochloa crus-galli)” value is listed as 5. The “Post-emergence herbicidal damage score, SETFA (Setaria faberi)” value turned out to be 5 and the “Post-emergence herbicidal damage score, ZEAMX (Zea mays)” value came out at 1.

As to `CC1=C(Cl)C(O)N(c2cc(C(F)(F)F)n(C(C)C)n2)C1=O` (stereo not drawn) [Compound C4], the “Post-emergence herbicidal damage score, ABUTH (Abutilon theophrasti)” value was determined as 0; the “Post-emergence herbicidal damage score, ALOMY (Alopecurus myosuroides)” value worked out at 0; the “Post-emergence herbicidal damage score, AMARE (Amaranthus retroflexus)” value was determined as 1; the “Post-emergence herbicidal damage score, ECHCG (Echinochloa crus-galli)” value amounted to 1. For the same compound, the “Post-emergence herbicidal damage score, SETFA (Setaria faberi)” value is reported as 1 and the “Post-emergence herbicidal damage score, ZEAMX (Zea mays)” value is listed as 1.

Turning to `CC1=C(Cl)C(O)N(c2cc(C(F)(F)F)n(CC(F)(F)F)n2)C1=O` (stereo not drawn) [Compound C5], the “Post-emergence herbicidal damage score, ABUTH (Abutilon theophrasti)” value came out at 2; the “Post-emergence herbicidal damage score, ALOMY (Alopecurus myosuroides)” value is listed as 0; the “Post-emergence herbicidal damage score, AMARE (Amaranthus retroflexus)” value is given as 1; the “Post-emergence herbicidal damage score, ECHCG (Echinochloa crus-galli)” value was determined as 0. Further, the “Post-emergence herbicidal damage score, SETFA (Setaria faberi)” value came out at 0 and the “Post-emergence herbicidal damage score, ZEAMX (Zea mays)” value amounted to 3.

With `CC1=C(Cl)C(O)N(c2cc(C)n(C(F)F)n2)C1=O` (stereo not drawn) [Compound C6], the “Post-emergence herbicidal damage score, ABUTH (Abutilon theophrasti)” value is listed as 1; the “Post-emergence herbicidal damage score, ALOMY (Alopecurus myosuroides)” value worked out at 0; the “Post-emergence herbicidal damage score, AMARE (Amaranthus retroflexus)” value was determined as 2; the “Post-emergence herbicidal damage score, ECHCG (Echinochloa crus-galli)” value turned out to be 0. The “Post-emergence herbicidal damage score, SETFA (Setaria faberi)” value was determined as 2 and the “Post-emergence herbicidal damage score, ZEAMX (Zea mays)” value stood at 1.

With `CC1=C(Cl)C(O)N(c2cc(C#N)n(CC(F)(F)F)n2)C1=O` (stereo not drawn) [Compound C7], the “Post-emergence herbicidal damage score, ABUTH (Abutilon theophrasti)” value is on record as 3; the “Post-emergence herbicidal damage score, ALOMY (Alopecurus myosuroides)” value worked out at 0; the “Post-emergence herbicidal damage score, AMARE (Amaranthus retroflexus)” value is 0; the “Post-emergence herbicidal damage score, ECHCG (Echinochloa crus-galli)” value is on record as 0. The “Post-emergence herbicidal damage score, SETFA (Setaria faberi)” value is on record as 1 and the “Post-emergence herbicidal damage score, ZEAMX (Zea mays)” value worked out at 0.

Turning to `CC1=C(Cl)C(O)N(c2nn(CC(F)(F)F)c(C)c2C#N)C1=O` (stereo not drawn) [Compound C8], the “Post-emergence herbicidal damage score, ABUTH (Abutilon theophrasti)” value is 0; the “Post-emergence herbicidal damage score, ALOMY (Alopecurus myosuroides)” value was 0; the “Post-emergence herbicidal damage score, AMARE (Amaranthus retroflexus)” value is recorded as 1; the “Post-emergence herbicidal damage score, ECHCG (Echinochloa crus-galli)” value was found to be 0. The “Post-emergence herbicidal damage score, SETFA (Setaria faberi)” value is 0 and the “Post-emergence herbicidal damage score, ZEAMX (Zea mays)” value worked out at 0.

As for `CC1=C(Cl)C(O)N(c2cc(C)n(C(F)(F)F)n2)C1=O` (stereo not drawn) [Compound C9], the “Post-emergence herbicidal damage score, ABUTH (Abutilon theophrasti)” value is recorded as 1; the “Post-emergence herbicidal damage score, ALOMY (Alopecurus myosuroides)” value stood at 0; the “Post-emergence herbicidal damage score, AMARE (Amaranthus retroflexus)” value was 1; the “Post-emergence herbicidal damage score, ECHCG (Echinochloa crus-galli)” value was found to be 1. For the same compound, the “Post-emergence herbicidal damage score, SETFA (Setaria faberi)” value stood at 0 and the “Post-emergence herbicidal damage score, ZEAMX (Zea mays)” value is listed as 1.

In the case of `CC1=C(Cl)C(O)N(c2nn(C)c(C(C)(C)C)c2C#N)C1=O` (stereo not drawn) [Compound D1], the “Post-emergence herbicidal damage score, ABUTH (Abutilon theophrasti)” value is 3; the “Post-emergence herbicidal damage score, ALOMY (Alopecurus myosuroides)” value worked out at 2; the “Post-emergence herbicidal damage score, AMARE (Amaranthus retroflexus)” value worked out at 4; the “Post-emergence herbicidal damage score, ECHCG (Echinochloa crus-galli)” value is on record as 3. Besides, the “Post-emergence herbicidal damage score, SETFA (Setaria faberi)” value was found to be 1 and the “Post-emergence herbicidal damage score, ZEAMX (Zea mays)” value is given as 0.

As for `CC1=C(Cl)C(O)N(c2nn(C)c(C(C)(C)C)c2Cl)C1=O` (stereo not drawn) [Compound D2], the “Post-emergence herbicidal damage score, ABUTH (Abutilon theophrasti)” value amounted to 3; the “Post-emergence herbicidal damage score, ALOMY (Alopecurus myosuroides)” value was 1; the “Post-emergence herbicidal damage score, AMARE (Amaranthus retroflexus)” value amounted to 0; the “Post-emergence herbicidal damage score, ECHCG (Echinochloa crus-galli)” value was 2. The “Post-emergence herbicidal damage score, SETFA (Setaria faberi)” value is listed as 2 and the “Post-emergence herbicidal damage score, ZEAMX (Zea mays)” value came out at 0.

Consider `CC1=C(Cl)C(O)N(c2nn(C)c(C(C)(C)CCl)c2Cl)C1=O` (stereo not drawn) [Compound D3], for which the “Post-emergence herbicidal damage score, ABUTH (Abutilon theophrasti)” value is 1; the “Post-emergence herbicidal damage score, ALOMY (Alopecurus myosuroides)” value is 0; the “Post-emergence herbicidal damage score, AMARE (Amaranthus retroflexus)” value was 0; the “Post-emergence herbicidal damage score, ECHCG (Echinochloa crus-galli)” value was 2. The “Post-emergence herbicidal damage score, SETFA (Setaria faberi)” value came to 1 and the “Post-emergence herbicidal damage score, ZEAMX (Zea mays)” value came out at 1.

Regarding `CCCC1=C(C)C(O)N(c2nn(C)c(C(C)(C)C)c2C#N)C1=O` (stereo not drawn) [Compound D4], the “Post-emergence herbicidal damage score, ABUTH (Abutilon theophrasti)” value is 4; the “Post-emergence herbicidal damage score, ALOMY (Alopecurus myosuroides)” value is reported as 3; the “Post-emergence herbicidal damage score, AMARE (Amaranthus retroflexus)” value came to 2; the “Post-emergence herbicidal damage score, ECHCG (Echinochloa crus-galli)” value is 2. The “Post-emergence herbicidal damage score, SETFA (Setaria faberi)” value is 4 and the “Post-emergence herbicidal damage score, ZEAMX (Zea mays)” value was 0.

As to `Cn1nc(N2C(=O)C(CCl)=C(Cl)C2O)cc1C(C)(C)C` (stereo not drawn) [Compound E1], the “Post-emergence herbicidal damage score, ABUTH (Abutilon theophrasti)” value came out at 4; the “Post-emergence herbicidal damage score, ALOMY (Alopecurus myosuroides)” value was 4; the “Post-emergence herbicidal damage score, AMARE (Amaranthus retroflexus)” value turned out to be 1; the “Post-emergence herbicidal damage score, ECHCG (Echinochloa crus-galli)” value was found to be 5. Moreover, the “Post-emergence herbicidal damage score, SETFA (Setaria faberi)” value worked out at 5 and the “Post-emergence herbicidal damage score, ZEAMX (Zea mays)” value worked out at 0.

Turning to `CCCC1=C(Cl)C(O)N(c2cc(C(C)(C)C#N)n(C)n2)C1=O` (stereo not drawn) [Compound E2], the “Post-emergence herbicidal damage score, ABUTH (Abutilon theophrasti)” value is reported as 4; the “Post-emergence herbicidal damage score, ALOMY (Alopecurus myosuroides)” value is recorded as 4; the “Post-emergence herbicidal damage score, AMARE (Amaranthus retroflexus)” value worked out at 5; the “Post-emergence herbicidal damage score, ECHCG (Echinochloa crus-galli)” value came to 5. Moreover, the “Post-emergence herbicidal damage score, SETFA (Setaria faberi)” value is recorded as 4 and the “Post-emergence herbicidal damage score, ZEAMX (Zea mays)” value came out at 1.

As for `CC1=C(Cl)C(OC(=O)OCC(C)C)N(c2cc(C(C)(C)C)n(C)n2)C1=O` (stereo not drawn) [Compound F1], the “Post-emergence herbicidal damage score, ABUTH (Abutilon theophrasti)” value came out at 5; the “Post-emergence herbicidal damage score, ALOMY (Alopecurus myosuroides)” value was determined as 4; the “Post-emergence herbicidal damage score, AMARE (Amaranthus retroflexus)” value is on record as 5; the “Post-emergence herbicidal damage score, ECHCG (Echinochloa crus-galli)” value stood at 5. Further, the “Post-emergence herbicidal damage score, SETFA (Setaria faberi)” value was found to be 5 and the “Post-emergence herbicidal damage score, ZEAMX (Zea mays)” value is on record as 3.

Consider `CC1=C(Cl)C(OC(=O)Oc2ccccc2)N(c2cc(C(C)(C)C)n(C)n2)C1=O` (stereo not drawn) [Compound F2], for which the “Post-emergence herbicidal damage score, ABUTH (Abutilon theophrasti)” value is given as 5; the “Post-emergence herbicidal damage score, ALOMY (Alopecurus myosuroides)” value stood at 4; the “Post-emergence herbicidal damage score, AMARE (Amaranthus retroflexus)” value turned out to be 5; the “Post-emergence herbicidal damage score, ECHCG (Echinochloa crus-galli)” value was 5. Also, the “Post-emergence herbicidal damage score, SETFA (Setaria faberi)” value is recorded as 5 and the “Post-emergence herbicidal damage score, ZEAMX (Zea mays)” value was 1.

For the origin of these results see patent publication US20160168126A1, “CHEMICAL COMPOUNDS” (SYNGENTA LIMITED, priority 2013, published 2016).
